Reference: patent publication US20250082761A1, “DUAL-TARGETED RNA POLYMERASE INHIBITORS: CONJUGATES OF BENZOXAZINO- AND SPIRO-RIFAMYCINS WITH N ALPHA-AROYL-N-ARYL-[…]” (priority 2021, published 2025)
≈ marks a conversion by molar mass, not a printed value.

Columns and labels:
[1] = tested on: CYP3A4; test: in vitro; conditions: male, human, hepatocytes
[2] = tested on: Mycobacterium abscessus IDR-1400012185; format: cell-based; design: unit not given here
[3] = tested on: Mycobacterium tuberculosis H37Rv; test: microbe, parasite or virus in culture; format: cell-based; conditions: read-out: antibacterial activity M. tuberculosis H37Rv MIC
[4] = tested on: Mycobacterium avium ATCC 25291; test: Microplate Alamar Blue MIC assay, M. avium; format: cell-based; conditions: unit not given

`[2H]C([2H])(c1ccccc1)[C@@H](NC(=O)c1ccccc1F)C(=O)Nc1cc(F)ccc1N1CCN(c2cc(O)c3nc4c5c6c7c(C)c(O)c5c(=O)c(c-4oc3c2)NC(=O)/C(C)=C\C=C\[C@H](C)[C@H](O)[C@@H](C)[C@@H](O)[C@@H](C)[C@H](OC(C)=O)[C@H](C)[C@@H](OC)/C=C/O[C@@](C)(O7)C6=O)CC1` [IX-511a, 3'-hydroxy-benzoxazinorifamycin S-(IX-370a) conjugate] was tested, and the IC50 [1] was 10 µM, the “antibacterial activity M. abscessus IDR-1400012185” value [2] was 1.56 and the MIC [3] was 0.002 µg/mL (≈ 0.00158 µM). For the same molecule, the “antibacterial activity M. avium ATCC 25291” value [4] was 0.024.

`[2H]C([2H])(c1ccccc1)C(NC(=O)c1ccccc1F)C(=O)Nc1cc(F)ccc1N1CCC2(CC1)N=C1C(=C3NC(=O)/C(C)=C\C=C\[C@H](C)[C@H](O)[C@@H](C)[C@@H](O)[C@@H](C)[C@H](OC(C)=O)[C@H](C)[C@@H](OC)/C=C/O[C@]4(C)Oc5c(C)c(O)c(c1c5C4=O)C3=O)N2` (stereo partly drawn) [IX-515, spirorifamycin S-(IX-513) conjugate] was tested, and the IC50 [1] was greater than 10 µM, the “antibacterial activity M. abscessus IDR-1400012185” value [2] was 6.25 and the MIC [3] was 0.031 µg/mL (≈ 0.0265 µM). The “antibacterial activity M. avium ATCC 25291” value [4] was 0.78.

With `[2H]C([2H])(c1ccccc1)[C@@H](NC(=O)c1ccccc1F)C(=O)Nc1cc(F)ccc1N1CCN(c2ccc3nc4c5c6c7c(C)c(O)c5c(=O)c(c-4oc3c2)NC(=O)/C(C)=C\C=C\[C@H](C)[C@H](O)[C@@H](C)[C@@H](O)[C@@H](C)[C@H](OC(C)=O)[C@H](C)[C@@H](OC)/C=C/O[C@@](C)(O7)C6=O)CC1` [IX-516a, benzoxazinorifamycin S-(IX-370a) conjugate] the IC50 [1] was 10 µM, the “antibacterial activity M. abscessus IDR-1400012185” value [2] was 3.13 and the MIC [3] was 0.031 µg/mL (≈ 0.0248 µM).

Work on `[2H]C([2H])(c1ccccc1)[C@@H](NC(=O)c1ccccc1F)C(=O)Nc1cc(F)ccc1N1CCN(c2cc(O)c3nc4c5c6c7c(C)c(O)c5c(=O)c(c-4oc3c2)NC(=O)/C(C)=C\C=C\[C@H](C)[C@H](O)[C@@H](C)[C@@H](O)[C@@H](C)[C@H](O)[C@H](C)[C@@H](OC)/C=C/O[C@@](C)(O7)C6=O)CC1` [IX-519a, desacetyl-3′-hydroxy-benzoxazinorifamycin S-(IX-370a) conjugate] yielded an MIC [3] of 0.024 µg/mL (≈ 0.0196 µM).

`CO[C@H]1/C=C/O[C@@]2(C)Oc3c(C)c(O)c4c(O)c(c(/C=N/N5CCN(C)CC5)c(O)c4c3C2=O)NC(=O)/C(C)=C\C=C\[C@H](C)[C@H](O)[C@@H](C)[C@@H](O)[C@@H](C)[C@H](OC(C)=O)[C@@H]1C` [rifampin, reference compound] was tested, and the “antibacterial activity M. abscessus IDR-1400012185” value [2] was 1.56, the MIC [3] was 0.063 µg/mL (≈ 0.0766 µM) and the “antibacterial activity M. avium ATCC 25291” value [4] was 0.024.
